Source: ChEMBL document CHEMBL1128468, “Amino acid side chain descriptors for quantitative structure-activity relationship studies of peptide analogues” (J Med Chem, 1995)

Biological target: T1, Oxytocin receptor (Rattus norvegicus, UniProt P70536)
T1 sequence (P70536 whole entry): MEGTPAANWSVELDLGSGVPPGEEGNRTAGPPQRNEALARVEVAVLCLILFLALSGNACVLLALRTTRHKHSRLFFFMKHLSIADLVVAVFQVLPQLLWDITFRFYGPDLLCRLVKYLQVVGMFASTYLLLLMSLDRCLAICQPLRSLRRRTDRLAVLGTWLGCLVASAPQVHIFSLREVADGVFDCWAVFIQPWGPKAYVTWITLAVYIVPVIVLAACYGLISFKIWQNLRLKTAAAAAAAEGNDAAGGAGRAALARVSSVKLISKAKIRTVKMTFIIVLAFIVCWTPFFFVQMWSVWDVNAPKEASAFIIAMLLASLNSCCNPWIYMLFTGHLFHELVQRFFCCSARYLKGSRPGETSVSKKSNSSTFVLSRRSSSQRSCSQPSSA
Test: Biological activity against Oxytocin receptor in rat

- pA2: 4.95
SMILES: CC[C@H](C)[C@@H]1NC(=O)[C@@H](Cc2c[nH]c3ccccc23)NC(=O)CC2(CCCCC2)SSC[C@@H](C(=O)N2CCC[C@H]2C(=O)N[C@@H](CCCN=C(N)N)C(=O)NCC(N)=O)NC(=O)[C@H](CC(N)=O)NC(=O)[C@@H]([C@H](C)O)NC1=O
